Data on 13 compounds can be found in paper PMC11513893, “Discovery of Oral Degraders of the ROS1 Fusion Protein with Potent Activity against Secondary Resistance Mutations” (Journal of Medicinal Chemistry, 2024).

Assay [1] concerns Ba/F3 CD74-ROS1 non mutant. In words: Antiproliferation assay (Alamar Blue, 72 h). Format: cell-based, mouse. The settings on record: Mus musculus, BaF3, 72 h, Ba/F3 cells, cell growth inhibition. An excerpt:
(§1) To assess targeted degradation of ROS1 fusion proteins, we first established a mouse pro-B cell line Ba/F3 as a model expressing the CD74-ROS1 oncogene or CD74-ROS1 with clinically observed secondary/tertiary mutations. The Ba/F3 cell line is dependent on interleukin-3 for survival and proliferation. Upon transduction of oncogenic ROS1, Ba/F3 cells become independent of interleukin-3 but dependent on the transduced driver gene.
(§2) Ba/F3 immortalized murine bone marrow–derived pro-B cells were obtained from Creative Biogene (Shirley, NY) and cultured in RPMI supplemented with 10% FBS and IL3 (0.5 ng/mL). Ba/F3 cells expressing ROS1 variants were maintained in RPMI supplemented with 10% FBS and puromycin (0.7 mg/mL). […] Each compound was dissolved in DMSO and serially diluted in RPMI for cell culture experiments.
(§3) To assess the 72 h effect of drug treatment on cell proliferation, 2000 to 3000 cells were plated in replicates of three in 96-well plates. The plates were placed in an incubator at 37 °C, 5% CO2 for 72 h. Following drug treatments, the cells were incubated with the Alamar Blue Assay reagent (BioRad), 5 μL each well for 4 h at 37 °C and 5% CO2. Luminescence was measured on a multiplate reader and analyzed. […] IC50 values were determined using a nonlinear regression model with a sigmoidal dose response in GraphPad. The data were collected based on triplicate experiments, and presented as mean ± SD.
(§4) The resulting virus was used to infect Ba/F3 cells. After retroviral infection, Ba/F3 cells were selected by incubation with puromycin (0.7 mg/mL) for 2 weeks. For Ba/F3 cells infected by the CD74–ROS1 variants, IL3 was withdrawn from the culture medium at least 2 weeks before the experiments.
Background: Alamar Blue is a resazurin reagent that responds to reducing activity.

The test system of assay [2] is Ba/F3 ROS1-G2032R. In words: Antiproliferation assay. In kind it is cell-based, mouse. The settings on record: Mus musculus, BaF3; Ba/F3 cells, cell growth inhibition, 72 h.
Source text: as §1, §2, §3, §4

Assay [3] deals with ROS1. In words: ROS1 degradation in Ba/F3 cells (WES immunoblotting). In kind it is cell-based. The settings on record: for DC50: concentration needed to reduce ROS1 protein by 50%, Ba/F3 cells; for Dmax (%) (ROS1): maximal degradation of ROS1 in Ba/F3 cells. Here is the method: Protein levels were analyzed using a WES instrument according to the WES User Guide from ProteinSimple in duplicate experiments. The samples were mixed with the fluorescent 5 master mix (ProteinSimple) and then heated at 95 °C for 5 min. Boiled samples, biotinylated protein ladder, antibody diluent, Streptavidin-HRP, primary antibodies, ProteinSimple horseradish peroxidase conjugated antirabbit or antimouse secondary antibodies, luminol-peroxide, and wash buffer were loaded into the WES plate (Wes 12–230 kDa Prefilled Plates with Split Buffer, ProteinSimple). The plates and capillary cartridges were loaded into the WES instrument, and protein separation, antibody incubation, and imaging were performed according to manufacturer’s instructions. Compass software (ProteinSimple) was used to acquire the data and to generate the virtual blot image reconstruction and chemiluminescence signal intensity electropherograms. […] Protein levels are expressed as the AUC of the peak chemiluminescence intensity. Antibodies against phospho-ROS1(Tyr2274/2334) (E8F5J), ROS1 (D4D6(R)) were obtained from Cell Signaling Technology.

For orientation: IC50 means the concentration that gives 50% inhibition. A higher IC50 goes with weaker potency in that assay. A word on the DC50: it is the concentration at which degradation of the target reaches its halfway point. The low end stands for a more potent degrader, the high end for a less potent degrader. In the case of `Cc1cc(Nc2ncc(Cl)c(Nc3ccccc3S(=O)(=O)C(C)C)n2)c(OC(C)C)cc1C1CCN(CCNc2cccc3c2C(=O)N(C2CCC(=O)NC2=O)C3=O)CC1` (stereo not shown) [8a, 4-((2-(4-(4-((5-Chloro-4-((2-(isopropylsulfonyl)phenyl)amino)pyrimidin-2-yl)amino)-5-isopropoxy-2-methylphenyl)piperidin-1-yl)ethyl)amino)-2-(2,6-dioxopiperidin-3-yl)isoindoline-1,3-dione], the IC50 in assay [1] turned out to be 176 ± 31 nM. This compound displayed an IC50 in assay [2] above 10000 nM. In assay [3], it took 225 nM to reach half-maximal degradation (DC50) and the “Dmax (%) (ROS1)” value came to 58%.
In the case of `Cc1cc(Nc2ncc(Cl)c(Nc3ccccc3S(=O)(=O)C(C)C)n2)c(OC(C)C)cc1C1CCN(CCCNc2cccc3c2C(=O)N(C2CCC(=O)NC2=O)C3=O)CC1` (stereo not shown) [8b, 4-((3-(4-(4-((5-Chloro-4-((2-(isopropylsulfonyl)phenyl)amino)pyrimidin-2-yl)amino)-5-isopropoxy-2-methylphenyl)piperidin-1-yl)propyl)amino)-2-(2,6-dioxopiperidin-3-yl)isoindoline-1,3-dione], it took 122 ± 17 nM to reach half-maximal inhibition in assay [1] (IC50). The compound further yielded a concentration for half-maximal inhibition (IC50) in assay [2] above 10000 nM. In assay [3], the half-maximal degradation concentration (DC50) worked out at 140 nM and the “Dmax (%) (ROS1)” value was 71%.
Take `Cc1cc(Nc2ncc(Cl)c(Nc3ccccc3S(=O)(=O)C(C)C)n2)c(OC(C)C)cc1C1CCN(C2CCN(c3cccc4c3C(=O)N(C3CCC(=O)NC3=O)C4=O)CC2)CC1` (stereo not shown) [8c, 4-(4-(4-((5-Chloro-4-((2-(isopropylsulfonyl)phenyl)amino)pyrimidin-2-yl)amino)-5-isopropoxy-2-methylphenyl)-[1,4′-bipiperidin]-1′-yl)-2-(2,6-dioxopiperidin-3-yl)isoindoline-1,3-dione]: the IC50 was 107 ± 16 nM in assay [1] and 1260 ± 93 nM in assay [2]. The compound also gave a 50% degradation concentration (DC50) in assay [3] of 143 nM. In addition, the “Dmax (%) (ROS1)” value in assay [3] stood at 82%.
Regarding `Cc1cc(Nc2ncc(Cl)c(Nc3ccccc3S(=O)(=O)C(C)C)n2)c(OC(C)C)cc1C1CCN(C2CCN(CCNc3cccc4c3C(=O)N(C3CCC(=O)NC3=O)C4=O)CC2)CC1` (stereo not shown) [8d, 4-((2-(4-(4-((5-Chloro-4-((2-(isopropylsulfonyl)phenyl)amino)pyrimidin-2-yl)amino)-5-isopropoxy-2-methylphenyl)-[1,4′-bipiperidin]-1′-yl)ethyl)amino)-2-(2,6-dioxopiperidin-3-yl)isoindoline-1,3-dione], the results for the IC50 in assay [1] and in assay [2] were 183 ± 41 nM and 2560 ± 242 nM, respectively. In addition, the half-maximal degradation concentration (DC50) in assay [3] is 302 nM. In assay [3], the “Dmax (%) (ROS1)” value is 66%.
`Cc1cc(Nc2ncc(Cl)c(Nc3ccccc3S(=O)(=O)C(C)C)n2)c(OC(C)C)cc1C1CCN(C2CCN(CCCNc3cccc4c3C(=O)N(C3CCC(=O)NC3=O)C4=O)CC2)CC1` (stereo not shown) [8e, 4-((3-(4-(4-((5-Chloro-4-((2-(isopropylsulfonyl)phenyl)amino)pyrimidin-2-yl)amino)-5-isopropoxy-2-methylphenyl)-[1,4′-bipiperidin]-1′-yl)propyl)amino)-2-(2,6-dioxopiperidin-3-yl)isoindoline-1,3-dione] came in with an IC50 in assay [1] of 562 ± 61 nM. Further, the concentration for half-maximal inhibition (IC50) in assay [2] is above 10000 nM. In assay [3], it took 733 nM to reach half-maximal degradation (DC50) and the “Dmax (%) (ROS1)” value was determined as 28%.
For the compound `Cc1cc(Nc2ncc(Cl)c(Nc3ccccc3S(=O)(=O)C(C)C)n2)c(OC(C)C)cc1C1CCN(C2CCN(C3CN(c4cccc5c4C(=O)N(C4CCC(=O)NC4=O)C5=O)C3)CC2)CC1` (stereo not shown) [8f, 4-(3-(4-(4-((5-Chloro-4-((2-(isopropylsulfonyl)phenyl)amino)pyrimidin-2-yl)amino)-5-isopropoxy-2-methylphenyl)-[1,4′-bipiperidin]-1′-yl)azetidin-1-yl)-2-(2,6-dioxopiperidin-3-yl)isoindoline-1,3-dione], the IC50 stood at 115 ± 22 nM in assay [1] and 3660 ± 299 nM in assay [2]. Further, half-maximal degradation in assay [3] (DC50) was put at 189 nM. For the same compound, the “Dmax (%) (ROS1)” value in assay [3] amounted to 67%.
On to `Cc1cc(Nc2ncc(Cl)c(Nc3ccccc3S(=O)(=O)C(C)C)n2)c(OC(C)C)cc1C1CCN(C2CCN(CC3CN(c4cccc5c4C(=O)N(C4CCC(=O)NC4=O)C5=O)C3)CC2)CC1` (stereo not shown) [8g, 4-(3-((4-(4-((5-Chloro-4-((2-(isopropylsulfonyl)phenyl)amino)pyrimidin-2-yl)amino)-5-isopropoxy-2-methylphenyl)-[1,4′-bipiperidin]-1′-yl)methyl)azetidin-1-yl)-2-(2,6-dioxopiperidin-3-yl)isoindoline-1,3-dione], for which the IC50 in assay [1] is 191 ± 60 nM; in assay [2], 950 ± 67 nM. In assay [3], this compound had a DC50 of 155 nM. Besides, the “Dmax (%) (ROS1)” value in assay [3] stood at 77%.
`Cc1cc(Nc2ncc(Cl)c(Nc3ccccc3S(=O)(=O)C(C)C)n2)c(OC(C)C)cc1C1CCN(CCNc2ccc3c(c2)C(=O)N(C2CCC(=O)NC2=O)C3=O)CC1` (stereo not shown) [8h, 5-((2-(4-(4-((5-Chloro-4-((2-(isopropylsulfonyl)phenyl)amino)pyrimidin-2-yl)amino)-5-isopropoxy-2-methylphenyl)piperidin-1-yl)ethyl)amino)-2-(2,6-dioxopiperidin-3-yl)isoindoline-1,3-dione] returned a half-inhibitory concentration (IC50) in assay [1] of 128 ± 39 nM. Moreover, in assay [2], the IC50 was 6630 ± 1800 nM. Besides, in assay [3], the DC50 stood at 145 nM and the “Dmax (%) (ROS1)” value was determined as 71%.
In turn, `Cc1cc(Nc2ncc(Cl)c(Nc3ccccc3S(=O)(=O)C(C)C)n2)c(OC(C)C)cc1C1CCN(CCCNc2ccc3c(c2)C(=O)N(C2CCC(=O)NC2=O)C3=O)CC1` (stereo not shown) [8i, 5-((3-(4-(4-((5-Chloro-4-((2-(isopropylsulfonyl)phenyl)amino)pyrimidin-2-yl)amino)-5-isopropoxy-2-methylphenyl)piperidin-1-yl)propyl)amino)-2-(2,6-dioxopiperidin-3-yl)isoindoline-1,3-dione] had an IC50 in assay [1] of 93 ± 50 nM. In assay [2], this compound returned an IC50 of 4710 ± 486 nM. In assay [3], the half-maximal degradation concentration (DC50) was 88 nM and the “Dmax (%) (ROS1)” value was found to be 84%.
In turn, `Cc1cc(Nc2ncc(Cl)c(Nc3ccccc3S(=O)(=O)C(C)C)n2)c(OC(C)C)cc1C1CCN(C2CCN(c3ccc4c(c3)C(=O)N(C3CCC(=O)NC3=O)C4=O)CC2)CC1` (stereo not shown) [8j, 5-(4-(4-((5-Chloro-4-((2-(isopropylsulfonyl)phenyl)amino)pyrimidin-2-yl)amino)-5-isopropoxy-2-methylphenyl)-[1,4′-bipiperidin]-1′-yl)-2-(2,6-dioxopiperidin-3-yl)isoindoline-1,3-dione] displayed a half-maximal inhibitory concentration (IC50) in assay [1] of 39 ± 8 nM. This compound also had an IC50 in assay [2] of 1530 ± 521 nM. For the same compound, in assay [3], the DC50 was 41 nM and the “Dmax (%) (ROS1)” value was determined as 88%.
In the case of `Cc1cc(Nc2ncc(Cl)c(Nc3ccccc3S(=O)(=O)C(C)C)n2)c(OC(C)C)cc1C1CCN(C2CCN(CCNc3ccc4c(c3)C(=O)N(C3CCC(=O)NC3=O)C4=O)CC2)CC1` (stereo not shown) [8k, 5-((2-(4-(4-((5-Chloro-4-((2-(isopropylsulfonyl)phenyl)amino)pyrimidin-2-yl)amino)-5-isopropoxy-2-methylphenyl)-[1,4′-bipiperidin]-1′-yl)ethyl)amino)-2-(2,6-dioxopiperidin-3-yl)isoindoline-1,3-dione], the values for the IC50 in assay [1] and in assay [2] were 171 ± 26 nM and 8590 ± 1180 nM, respectively. The compound further returned a 50% degradation concentration (DC50) in assay [3] of 204 nM. Besides, in assay [3], the “Dmax (%) (ROS1)” value worked out at 89%.
In assay [1], `Cc1cc(Nc2ncc(Cl)c(Nc3ccccc3S(=O)(=O)C(C)C)n2)c(OC(C)C)cc1C1CCN(C2CCN(CCCNc3ccc4c(c3)C(=O)N(C3CCC(=O)NC3=O)C4=O)CC2)CC1` (stereo not shown) [8l, 5-((3-(4-(4-((5-Chloro-4-((2-(isopropylsulfonyl)phenyl)amino)pyrimidin-2-yl)amino)-5-isopropoxy-2-methylphenyl)-[1,4′-bipiperidin]-1′-yl)propyl)amino)-2-(2,6-dioxopiperidin-3-yl)isoindoline-1,3-dione] returned a 50% inhibitory concentration (IC50) of 598 ± 147 nM. The compound further yielded an IC50 in assay [2] above 10000 nM. Also, in assay [3], it took 452 nM to reach half-maximal degradation (DC50) and the “Dmax (%) (ROS1)” value amounted to 54%.
On the same counts, the results for `Cc1cc(Nc2ncc(Cl)c(Nc3ccccc3S(=O)(=O)C(C)C)n2)c(OC(C)C)cc1C1CCN(C2CCN(C3CN(c4ccc5c(c4)C(=O)N(C4CCC(=O)NC4=O)C5=O)C3)CC2)CC1` (stereo not shown) [8m, 5-(3-(4-(4-((5-Chloro-4-((2-(isopropylsulfonyl)phenyl)amino)pyrimidin-2-yl)amino)-5-isopropoxy-2-methylphenyl)-[1,4′-bipiperidin]-1′-yl)azetidin-1-yl)-2-(2,6-dioxopiperidin-3-yl)isoindoline-1,3-dione] are 39 ± 34 nM, 2770 ± 1080 nM, 35 nM and 92%.
